# According to ChEMBL document CHEMBL1201862, “PubChem BioAssay data set” (2004):
# Counter-ions that a name gives are not always drawn. Activity calls are given as the source filed them.
# What was measured:
# [1] = tested on: HEK293; assay: Fluorescence-based counterscreen for potentiators or agonists of NPY-Y2: cell-based high-throughput dose response assay to identify inhibitors of cyclic nucleotide gated ion channel (CNGC) activity. In this assay, the parental HEK293 cell line transfected with a cyclic-nucleotide gated ion channel (CNGC)-based cAMP sensor is used to measure inhibition of isoproterenol-induced CNGC activity by test compound.; format: functional; conditions: Homo sapiens;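 note: stimulus is 1 µM isoproterenol at EC100 plus PDE inhibitor Ro 20-1724 at 25 µM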
# [2] = target: T1, Neuropeptide Y receptor type 2 (Homo sapiens, UniProt P49146); assay: Fluorescence-based cell-based high-throughput dose response assay for agonists of NPY-Y2. [Related pubchem assays: 1703 (Screening assay (CNGC inhibitors).), 1359 (Screening assay (NPY-Y2 potentiators or agonists).), 1304 (Screening assay (NPY-Y1 potentiators or agonists).), 1710 (Screening assay (NPY-Y2 agonists).), 1791 (Summary AID.)]; format: functional
# T1 sequence (P49146 whole entry): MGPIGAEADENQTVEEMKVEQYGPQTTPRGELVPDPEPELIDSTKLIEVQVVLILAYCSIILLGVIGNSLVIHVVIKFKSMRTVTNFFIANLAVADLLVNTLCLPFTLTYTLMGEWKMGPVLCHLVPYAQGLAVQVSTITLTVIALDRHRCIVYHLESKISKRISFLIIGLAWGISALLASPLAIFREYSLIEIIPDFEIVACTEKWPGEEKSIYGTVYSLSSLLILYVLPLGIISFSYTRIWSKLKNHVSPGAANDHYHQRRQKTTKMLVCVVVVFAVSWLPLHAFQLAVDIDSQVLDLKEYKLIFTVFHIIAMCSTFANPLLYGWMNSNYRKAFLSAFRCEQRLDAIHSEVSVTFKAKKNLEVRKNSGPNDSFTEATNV
# [3] = blockade of melanocortin 4 receptor signaling – cell-based, plate reader, cherry pick, counter-screen for LGR2 antagonist project, dose response (AID 743444); format: functional;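 note: transfected HEK 293 cells stimulated with alpha-MSH peptide; potency of inhibitors of the alpha-MSH evoked signal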
# [4] = blockers of bursicon-stimulated LGR2 cAMP reporter – cell-based, HEK293, CRE-luciferase reporter, cherry pick, set 2, dose response (AID 743343); format: functional;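 note: transfected cells were stimulated with diluted bursicon conditioned medium after compound addition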
# [5] = target: T2, Neuropeptide Y receptor type 1 (Homo sapiens, UniProt P25929); assay: Fluorescence-based counterscreen for agonists of NPY-Y2: cell-based high-throughput dose response assay for agonists of NPY-Y1.; format: functional
# T2 sequence (P25929 whole entry): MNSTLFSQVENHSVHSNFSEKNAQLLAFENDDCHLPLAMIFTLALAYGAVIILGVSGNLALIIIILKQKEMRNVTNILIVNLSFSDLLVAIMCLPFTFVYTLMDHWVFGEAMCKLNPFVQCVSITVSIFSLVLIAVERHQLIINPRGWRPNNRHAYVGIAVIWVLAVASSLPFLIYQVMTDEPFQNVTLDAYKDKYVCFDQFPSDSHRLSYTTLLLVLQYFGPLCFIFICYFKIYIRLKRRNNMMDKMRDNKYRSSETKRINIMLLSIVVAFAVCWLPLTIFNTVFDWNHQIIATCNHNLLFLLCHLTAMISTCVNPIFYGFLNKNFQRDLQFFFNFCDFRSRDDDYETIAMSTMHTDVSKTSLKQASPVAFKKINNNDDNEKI
# [6] = target: T3, Neuropeptides B/W receptor type 1 (Homo sapiens, UniProt P48145); assay: Fluorescence-based dose response cell-based high throughput screening assay to identify antagonists of the G-protein coupled receptor 7 (GPR7). [Related pubchem assays: 1952 (Screening assay (GPR7 antagonists).), 1880 (Summary AID.)]; format: functional
# T3 sequence (P48145 whole entry): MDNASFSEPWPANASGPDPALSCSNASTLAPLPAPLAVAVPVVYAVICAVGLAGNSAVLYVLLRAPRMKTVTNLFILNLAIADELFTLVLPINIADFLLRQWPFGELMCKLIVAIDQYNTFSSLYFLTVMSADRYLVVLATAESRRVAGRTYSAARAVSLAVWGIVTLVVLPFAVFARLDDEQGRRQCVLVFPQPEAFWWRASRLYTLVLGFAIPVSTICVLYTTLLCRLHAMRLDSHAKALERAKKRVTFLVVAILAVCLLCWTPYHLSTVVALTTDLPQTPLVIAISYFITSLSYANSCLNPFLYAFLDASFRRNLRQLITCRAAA
# [7] = target: Melanin-concentrating hormone receptor 1 (Homo sapiens, UniProt Q99705); assay: Fluorescence-based counterscreen for antagonists of the G-protein coupled receptor 7 (GPR7): cell-based high throughput dose response assay to identify antagonists of the melanin-concentrating hormone receptor 1 (MCHR1).; format: functional
# [8] = tested on: Vero; assay: viability of Vero cells under compound – cytotoxicity control for flavivirus capping enzyme inhibitors (AID 588742); format: functional; conditions: Chlorocebus sabaeus
# [9] = NIH-3T3 fibroblast cytotoxicity, dose response, cytotoxicity control, cell-based, fluorescence, Alamar Blue, secondary assay (AID 2327); format: functional;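 note: NIH-3T3 mouse fibroblasts cultured with fluconazole at 8 µg/mL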
# [10] = target: T4, Polyadenylate-binding protein 1 (Homo sapiens, UniProt P11940); assay: MLLE domain peptide-binding blockers, IC50 – biochemical, fluorescence polarization, FITC-PAM2 peptide, dose response (AID 602259); format: functional; conditions: read-out: IC50_Mean
# [11] = target: T4, Polyadenylate-binding protein 1; assay: MLLE binding blockers, Cy5 peptide tracer – biochemical, fluorescence polarization, Cy5-PAM2 peptide, secondary, miRNA deadenylation inhibitor project, dose response (AID 602260); format: functional; conditions: read-out: IC50_Mean
# [12] = fluconazole-exposed Candida albicans growth modulators – fluorescence, retest, confirmation (AID 2467); format: functional, cell-based
# [13] = target: Genome polyprotein (dengue virus type 2, UniProt P29990); assay: flavivirus cap methylation enzyme inhibition – biochemical, confirmation dose response, primary screen (AID 588689); format: functional
# [14] = luciferase reporter signal suppression in cells – H4 neuroglioma cells, luminescence, dose response (AID 1990); format: functional, cell-based
# [15] = tested on: BJ; assay: BJ-TERT-LT-ST fibroblast viability loss – cell-based, RAS-independent, luminescence, dose response (AID 1935); format: functional; conditions: Homo sapiens;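 note: BJ fibroblasts immortalized with TERT plus LT and ST oncogenes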
# [16] = Luminescence Cell-Based Dose Response HTS to Identify Inhibitors of 5'UTR Stem-Loop Driven Prion Protein mRNA Translation in H4 Neuroglioblastoma Cells. [Related pubchem assays: 1827 (Project Summary), 1813 (Primary HTS)]; format: functional
# [17] = tested on: BJ; assay: cells; format: functional, cell-based; conditions: Homo sapiens
# [18] = DRD fibroblast viability loss – cell-based, non-viral oncogenic, luminescence, dose response (AID 1934); format: functional; conditions: Homo sapiens
# [19] = tested on: BJ; assay: BJ-TERT fibroblast viability loss – cell-based, RAS-independent, luminescence, dose response (AID 1933); format: functional; conditions: Homo sapiens
# [20] = HEK-293T viability loss after treatment – luminescence, T-cell screen hits, cytotoxicity control for TCR NF-kB inhibitor project, dose response (AID 489026); format: functional, cell-based;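 note: cells exposed to compound about 14 hours before the viability readout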
# [21] = cells
# [22] = tested on: Vero; assay: cells; format: functional, cell-based; conditions: Chlorocebus sabaeus
# [23] = viability of uninfected HEp-2 cells – cell-based, HTS, cytotoxicity control for RSV inhibitor project, dose response (AID 2410); format: functional; conditions: human respiratory syncytial virus
# [24] = viability of PTEN-deleted HCT116 cells – cell-based, HCT116 PTEN knockout, dose response (AID 1047); format: functional;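 note: HCT116 colon tumor cells with PTEN knocked out; cells exposed to compound for 60 hours before readout; potency for loss of cell viability measured by luminescence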
# [25] = target: Procathepsin L (Homo sapiens, UniProt P07711)
# [26] = target: T5, Aspartyl aminopeptidase (Plasmodium falciparum 3D7, UniProt Q8I2J3)
# T5 sequence (Q8I2J3 whole entry): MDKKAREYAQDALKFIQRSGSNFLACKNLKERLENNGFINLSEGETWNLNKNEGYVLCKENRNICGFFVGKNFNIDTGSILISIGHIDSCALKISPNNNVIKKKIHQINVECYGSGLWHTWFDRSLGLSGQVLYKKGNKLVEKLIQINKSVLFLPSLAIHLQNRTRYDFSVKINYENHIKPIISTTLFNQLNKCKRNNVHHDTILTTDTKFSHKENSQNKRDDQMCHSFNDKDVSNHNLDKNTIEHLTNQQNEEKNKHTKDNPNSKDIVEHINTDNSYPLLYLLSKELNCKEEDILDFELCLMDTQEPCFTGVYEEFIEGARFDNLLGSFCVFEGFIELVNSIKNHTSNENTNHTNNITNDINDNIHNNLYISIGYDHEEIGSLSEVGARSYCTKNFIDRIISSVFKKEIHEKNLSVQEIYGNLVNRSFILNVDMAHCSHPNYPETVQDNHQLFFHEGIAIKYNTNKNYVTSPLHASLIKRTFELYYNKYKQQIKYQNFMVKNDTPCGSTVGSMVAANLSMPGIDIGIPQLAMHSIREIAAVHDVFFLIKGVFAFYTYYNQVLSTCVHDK
# [27] = target: Large T antigen (Simian virus 40, UniProt P03070); format: functional, Betapolyomavirus macacae;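 note: Confirmatory-stage PubChem screen for compounds that inhibit SV40 T antigen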
# [28] = viability of HCT116 lacking mutant beta-catenin – cell-based, human colon tumor, dose response (AID 1045); format: functional;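 note: HCT116 colon tumor cells with beta catenin knocked out; cells exposed to compound for 60 hours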
# [29] = tested on: BJ; assay: growth inhibition of engineered Ras-driven BJ cells – cell-based, alamar blue fluorescence, cherrypicked samples, dose response (AID 2631); format: functional; conditions: Homo sapiens;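 note: confirmatory dose-response assay in RAS-dependent BJ fibroblasts engineered with TERT, LT and ST, with cytotoxicity read by fluorescence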
# [30] = target: Induced myeloid leukemia cell differentiation protein Mcl-1 (Homo sapiens, UniProt Q07820); format: functional
# [31] = A Cell Based Secondary Assay To Explore Cytotoxicity of Compounds that Sensitize Mycobacterium Tuberculosis to Beta-Lactam Antibiotics.; format: functional
# [32] = tested on: HeLa; assay: viability loss in HeLa cells – cell-based, 24 h, cherry-picked samples, cytotoxicity control, dose response (AID 504726); format: functional; conditions: Homo sapiens;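 note: potency for cytotoxicity as loss of luminescence signal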
# [33] = target: FAD-linked sulfhydryl oxidase ALR (Homo sapiens, UniProt P55789); assay: ALR-catalysed DTT oxidation blockers – biochemical, H2O2 detection, luminescence, cherry-pick, dose response (AID 493248)
# Sequence of FAD-linked sulfhydryl oxidase ALR (P55789 whole entry): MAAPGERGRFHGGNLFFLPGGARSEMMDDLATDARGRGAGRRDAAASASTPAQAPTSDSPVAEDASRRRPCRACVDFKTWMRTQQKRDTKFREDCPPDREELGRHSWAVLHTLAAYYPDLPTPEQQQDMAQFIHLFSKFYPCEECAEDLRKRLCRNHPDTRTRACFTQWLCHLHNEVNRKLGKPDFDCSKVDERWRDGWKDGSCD
# Sequence of Procathepsin L (P07711 whole entry): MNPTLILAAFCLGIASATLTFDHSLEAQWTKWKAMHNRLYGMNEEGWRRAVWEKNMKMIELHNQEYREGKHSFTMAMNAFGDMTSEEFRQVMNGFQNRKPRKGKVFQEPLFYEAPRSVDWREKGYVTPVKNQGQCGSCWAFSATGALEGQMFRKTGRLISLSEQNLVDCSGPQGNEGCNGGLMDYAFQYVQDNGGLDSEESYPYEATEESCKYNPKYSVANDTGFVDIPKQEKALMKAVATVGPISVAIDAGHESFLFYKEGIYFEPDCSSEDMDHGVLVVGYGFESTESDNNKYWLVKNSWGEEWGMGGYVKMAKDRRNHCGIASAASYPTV
# Sequence of Melanin-concentrating hormone receptor 1 (Q99705 whole entry): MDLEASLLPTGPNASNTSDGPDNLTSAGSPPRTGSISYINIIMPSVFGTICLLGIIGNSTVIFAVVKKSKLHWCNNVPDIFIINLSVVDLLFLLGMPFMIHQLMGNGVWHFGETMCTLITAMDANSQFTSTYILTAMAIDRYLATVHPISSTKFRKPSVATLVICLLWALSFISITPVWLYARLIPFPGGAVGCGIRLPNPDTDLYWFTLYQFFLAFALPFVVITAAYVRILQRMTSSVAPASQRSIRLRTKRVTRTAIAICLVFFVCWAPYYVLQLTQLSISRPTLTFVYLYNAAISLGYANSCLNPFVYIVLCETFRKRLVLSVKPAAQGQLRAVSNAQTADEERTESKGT
# T4 sequence (P11940 whole entry, the tested form may be a part): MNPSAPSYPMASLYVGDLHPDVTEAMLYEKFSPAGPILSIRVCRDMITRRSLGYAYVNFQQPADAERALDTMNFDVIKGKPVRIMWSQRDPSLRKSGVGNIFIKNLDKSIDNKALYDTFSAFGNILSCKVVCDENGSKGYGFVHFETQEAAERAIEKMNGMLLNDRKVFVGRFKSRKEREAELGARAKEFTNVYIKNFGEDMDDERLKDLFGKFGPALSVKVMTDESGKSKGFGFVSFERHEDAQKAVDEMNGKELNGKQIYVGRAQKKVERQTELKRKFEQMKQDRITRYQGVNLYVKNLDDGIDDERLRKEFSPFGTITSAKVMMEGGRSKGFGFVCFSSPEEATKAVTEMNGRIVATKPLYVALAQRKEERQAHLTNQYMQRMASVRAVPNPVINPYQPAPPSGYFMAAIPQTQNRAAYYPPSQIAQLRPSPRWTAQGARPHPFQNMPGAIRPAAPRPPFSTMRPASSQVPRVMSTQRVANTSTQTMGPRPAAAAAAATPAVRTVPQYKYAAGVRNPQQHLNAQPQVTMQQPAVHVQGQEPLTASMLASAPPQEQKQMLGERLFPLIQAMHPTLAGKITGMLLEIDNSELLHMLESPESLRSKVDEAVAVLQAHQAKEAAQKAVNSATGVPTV
# Sequence of Genome polyprotein (P29990 2492-3391 limits assumed): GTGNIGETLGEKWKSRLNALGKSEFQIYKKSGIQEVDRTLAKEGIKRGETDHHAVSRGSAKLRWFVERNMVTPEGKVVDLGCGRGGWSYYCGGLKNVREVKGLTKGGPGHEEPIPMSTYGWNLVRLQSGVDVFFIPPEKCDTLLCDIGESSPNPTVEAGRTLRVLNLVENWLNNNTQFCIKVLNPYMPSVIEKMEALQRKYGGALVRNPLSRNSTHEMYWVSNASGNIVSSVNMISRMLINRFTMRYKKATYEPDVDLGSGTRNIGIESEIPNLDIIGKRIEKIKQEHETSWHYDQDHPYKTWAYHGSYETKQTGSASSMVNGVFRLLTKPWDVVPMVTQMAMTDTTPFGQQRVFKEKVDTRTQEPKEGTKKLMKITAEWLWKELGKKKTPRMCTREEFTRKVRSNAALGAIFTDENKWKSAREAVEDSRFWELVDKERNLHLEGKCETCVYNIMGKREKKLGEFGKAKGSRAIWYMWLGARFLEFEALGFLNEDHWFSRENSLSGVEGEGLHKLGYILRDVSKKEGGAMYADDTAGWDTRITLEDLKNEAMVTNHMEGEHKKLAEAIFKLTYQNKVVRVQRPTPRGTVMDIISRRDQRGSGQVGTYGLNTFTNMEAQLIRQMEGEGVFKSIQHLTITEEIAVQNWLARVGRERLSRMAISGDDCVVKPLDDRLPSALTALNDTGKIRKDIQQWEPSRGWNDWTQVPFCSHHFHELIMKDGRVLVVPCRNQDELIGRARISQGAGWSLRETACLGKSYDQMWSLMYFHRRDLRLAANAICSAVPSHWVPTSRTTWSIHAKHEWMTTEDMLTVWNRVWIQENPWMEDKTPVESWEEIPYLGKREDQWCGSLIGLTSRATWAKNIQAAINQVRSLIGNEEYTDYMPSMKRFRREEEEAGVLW
# Sequence of Large T antigen (P03070 whole entry): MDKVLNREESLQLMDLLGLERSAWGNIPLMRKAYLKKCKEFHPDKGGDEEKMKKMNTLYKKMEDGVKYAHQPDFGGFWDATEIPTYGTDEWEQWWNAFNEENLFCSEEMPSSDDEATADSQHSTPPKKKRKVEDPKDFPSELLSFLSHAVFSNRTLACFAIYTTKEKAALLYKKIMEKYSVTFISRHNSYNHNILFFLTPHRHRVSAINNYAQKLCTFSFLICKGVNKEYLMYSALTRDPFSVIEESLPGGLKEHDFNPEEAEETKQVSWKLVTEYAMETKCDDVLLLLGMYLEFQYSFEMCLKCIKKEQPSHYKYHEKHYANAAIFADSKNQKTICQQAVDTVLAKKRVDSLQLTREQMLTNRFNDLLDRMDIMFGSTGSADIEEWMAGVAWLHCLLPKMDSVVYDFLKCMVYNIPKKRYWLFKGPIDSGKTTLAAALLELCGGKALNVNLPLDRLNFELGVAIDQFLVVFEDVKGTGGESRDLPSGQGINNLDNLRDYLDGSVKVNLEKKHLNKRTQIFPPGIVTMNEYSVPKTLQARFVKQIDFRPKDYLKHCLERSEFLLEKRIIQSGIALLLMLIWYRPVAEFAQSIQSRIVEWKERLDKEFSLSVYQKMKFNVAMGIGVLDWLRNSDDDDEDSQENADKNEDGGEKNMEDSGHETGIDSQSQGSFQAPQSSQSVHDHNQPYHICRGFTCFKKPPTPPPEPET
# Sequence of Induced myeloid leukemia cell differentiation protein Mcl-1 (Q07820 whole entry): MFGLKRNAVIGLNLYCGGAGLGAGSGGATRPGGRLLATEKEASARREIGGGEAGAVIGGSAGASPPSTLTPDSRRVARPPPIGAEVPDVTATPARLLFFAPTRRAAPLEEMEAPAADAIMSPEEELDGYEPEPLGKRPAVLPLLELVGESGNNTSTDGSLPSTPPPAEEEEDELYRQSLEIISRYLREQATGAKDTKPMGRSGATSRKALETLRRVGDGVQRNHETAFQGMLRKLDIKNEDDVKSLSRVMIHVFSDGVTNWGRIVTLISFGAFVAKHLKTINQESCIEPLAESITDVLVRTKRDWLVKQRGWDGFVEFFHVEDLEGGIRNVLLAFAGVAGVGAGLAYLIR
smiles,measurement,setting,value
Cc1ccc(C(=O)n2nc(-n3cccc3)c3c(C)cc(C)nc32)cc1,EC50,[1],> 35.4 µM (not active)
same,EC50,[2],> 35.4 µM (not active)
same,AC50,[3],1.22 µM (active)
same,AC50,[4],13.9 µM (active)
same,EC50,[5],> 35.4 µM (not active)
CCOC(=O)COc1c(Cl)cc(C2NC(S)=NC(c3ccccc3)=C2C(C)=O)cc1OC (stereo not given),IC50,[6],> 43.8 µM (not active)
same,IC50,[7],> 43.8 µM (not active)
COc1cc(C(=S)N2CCN(c3ccccc3Cl)CC2)cc(O)c1O,EC50,[1],> 35.4 µM (not active)
same,CC50,[8],> 40 µM (active)
same,EC50,[9],> 150 µM (inactive)
same,IC50,[10],> 66 µM (inactive)
same,EC50,[2],> 35.4 µM (not active)
same,IC50,[11],> 66 µM (inactive)
same,EC50,[12],> 38 µM (not active)
same,IC50,[13],> 100 µM (active)
same,EC50,[5],> 35.4 µM (not active)
CN(C)c1ccc(-[n+]2c(-c3ccccc3)cc(-c3ccccc3)cc2-c2ccccc2)cc1.[O-][Cl+3]([O-])([O-])[O-],EC50,[1],> 35.4 µM (not active)
same,EC50,[9],4.87 µM (active)
same,EC50,[14],8.27 µM (active)
same,EC50,[2],> 35.4 µM (not active)
same,EC50,[15],3 µM (inconclusive)
same,EC50,[16],> 120 µM (not active)
same,EC50,[17],3.14 µM (active)
same,EC50,[12],0.132 µM (active)
same,EC50,[18],3.14 µM (active)
same,EC50,[19],2.81 µM (active)
same,EC50,[5],24.4 µM (not active)
same,IC50,[20],55.4 µM (inactive)
Cc1[nH]c(C)c(S(=O)(=O)N2CCN(c3cccc(C(F)(F)F)c3)CC2)c1C(=O)N1CCCCC1,IC50,[21],23.3 µM (active)
same,IC50,[22],22.4 µM (active)
same,CC50,[23],17.6 µM (active)
COc1ccc(S(=O)(=O)NC(C)(C)C)cc1-c1nnc2c3ccccc3c(C)nn12,IC50,[21],8.97 µM (active)
Cc1csc(NC(=O)NC2(C(F)(F)F)Oc3ccccc3O2)n1,EC50,[24],24.8 µM (active)
same,IC50,[25],> 59.6 µM (not active)
same,IC50,[26],2.02 µM (active)
same,IC50,[27],13.3 µM (active)
same,EC50,[28],21.9 µM (active)
CCC(C)(C(=O)NC1CCCCC1)N(Cc1ccco1)C(=O)c1ccc2c(c1)OCO2 (stereo not given),IC50,[6],> 43.8 µM (not active)
same,IC50,[7],> 43.8 µM (not active)
CCC(=O)NC(=S)Nc1ccc(NC(=O)COc2ccc(Cl)c(C)c2)cc1,IC50,[21],39 µM (active)
same,CC50,[23],> 50 µM (active)
COc1ccc(C2=CC(=O)C=CC2=O)cc1,IC50,[25],> 59.6 µM (not active)
same,IC50,[26],6.85 µM (active)
same,EC50,[29],> 133 µM (inactive)
same,IC50,[30],5.43 µM (active)
O=C(c1ccccc1)N1CCC(CC2CC(c3cccc(Br)c3)=NO2)(C(=O)NCC2CCCCC2)CC1 (stereo not given),CC50,[31],> 40 µM (active)
Cc1noc(C)c1CSCC(=O)Nc1nc2c(F)cc(F)cc2s1,AC50,[32],> 350 µM (inactive)
NCCc1ccc(O)c(O)c1 [DOPAMINE HYDROCHLORIDE],IC50,[25],> 59.6 µM (not active)
same,IC50,[26],1.98 µM (active)
same,AC50,[33],1.42 µM (active)
